# In the supplement of paper PMC10883282:
# ± gives the standard deviation of the averaged measurements.
# Experiments:
# Experiment in all cases: relative viability vs DMSO control (72 h) (fraction); higher = more viable cells
# A204 = system: A204
# In short: (§1)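 Sarcoma cell lines were grown in 384-well plates seeded toward 80–90% confluence and exposed 24 h later to serially diluted compound. After 72 h at 37 °C and 5% CO2, with 0.1% DMSO vehicle and a 5 µM positive control on the plates, ATPLite was read. Relative viability, given as percent growth averaged over up to triplicate wells, was rescaled so that 1 is full and 0 is none.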
# G401 = system: G401
# In short: as §1
# HS729 = system: HS729
# In short: as §1
# KHOS-240S = system: KHOS-240S
# In short: as §1
# MES-SA = system: MES-SA
# In short: as §1
# SK-ES-1 = system: SK-ES-1
# In short: as §1
# SK-LMS-1 = system: SK-LMS-1
# In short: as §1
# SW1353 = system: SW1353
# In short: as §1
# SW684 = system: SW684
# In short: as §1
# SW872 = system: SW872
# In short: as §1
# SW982 = system: SW982
# In short: as §1
# SYO-1 = system: SYO-1
# In short: as §1
smiles,measurement,setting,value
Cc1ccc(NC(=O)c2ccc(CN3CCN(C)CC3)cc2)cc1Nc1nccc(-c2cccnc2)n1 [Imatinib],relative viability,A204; 0.00017 µM,1.01 ± 0.062
same,relative viability,A204; 0.00051 µM,1.01 ± 0.035
same,relative viability,A204; 0.00152 µM,0.993 ± 0.065
same,relative viability,A204; 0.00457 µM,0.99 ± 0.046
same,relative viability,A204; 0.01372 µM,0.95 ± 0.061
same,relative viability,A204; 0.04115 µM,0.87 ± 0.053
same,relative viability,A204; 0.1235 µM,0.738 ± 0.099
same,relative viability,A204; 0.3704 µM,0.491 ± 0.043
same,relative viability,A204; 1.111 µM,0.389 ± 0.054
same,relative viability,A204; 3.333 µM,0.312 ± 0.034
same,relative viability,A204; 10 µM,0.196 ± 0.014
same,relative viability,G401; 0.00017 µM,0.963 ± 0.028
same,relative viability,G401; 0.00051 µM,0.988 ± 0.018
same,relative viability,G401; 0.00152 µM,0.958 ± 0.041
same,relative viability,G401; 0.00457 µM,0.938 ± 0.038
same,relative viability,G401; 0.01372 µM,0.956 ± 0.034
same,relative viability,G401; 0.04115 µM,0.945 ± 0.076
same,relative viability,G401; 0.1235 µM,0.951 ± 0.022
same,relative viability,G401; 0.3704 µM,0.946 ± 0.028
same,relative viability,G401; 1.111 µM,0.925 ± 0.035
same,relative viability,G401; 3.333 µM,0.823 ± 0.04
same,relative viability,G401; 10 µM,0.518 ± 0.021
same,relative viability,HS729; 0.00017 µM,0.972 ± 0.055
same,relative viability,HS729; 0.00051 µM,0.996 ± 0.037
same,relative viability,HS729; 0.00152 µM,1.02 ± 0.041
same,relative viability,HS729; 0.00457 µM,0.991 ± 0.022
same,relative viability,HS729; 0.01372 µM,0.977 ± 0.034
same,relative viability,HS729; 0.04115 µM,0.985 ± 0.053
same,relative viability,HS729; 0.1235 µM,0.993 ± 0.04
same,relative viability,HS729; 0.3704 µM,0.945 ± 0.033
same,relative viability,HS729; 1.111 µM,0.917 ± 0.038
same,relative viability,HS729; 3.333 µM,0.86 ± 0.026
same,relative viability,HS729; 10 µM,0.522 ± 0.034
same,relative viability,KHOS-240S; 0.00017 µM,0.98 ± 0.011
same,relative viability,KHOS-240S; 0.00051 µM,0.977 ± 0.017
same,relative viability,KHOS-240S; 0.00152 µM,0.9747 ± 0.0069
same,relative viability,KHOS-240S; 0.00457 µM,0.98 ± 0.018
same,relative viability,KHOS-240S; 0.01372 µM,0.97 ± 0.016
same,relative viability,KHOS-240S; 0.04115 µM,0.971 ± 0.02
same,relative viability,KHOS-240S; 0.1235 µM,0.953 ± 0.035
same,relative viability,KHOS-240S; 0.3704 µM,0.929 ± 0.048
same,relative viability,KHOS-240S; 1.111 µM,0.895 ± 0.028
same,relative viability,KHOS-240S; 3.333 µM,0.794 ± 0.033
same,relative viability,KHOS-240S; 10 µM,0.542 ± 0.045
same,relative viability,MES-SA; 0.00017 µM,0.966 ± 0.036
same,relative viability,MES-SA; 0.00051 µM,0.988 ± 0.015
same,relative viability,MES-SA; 0.00152 µM,0.992 ± 0.03
same,relative viability,MES-SA; 0.00457 µM,0.9838 ± 0.008
same,relative viability,MES-SA; 0.01372 µM,0.985 ± 0.021
same,relative viability,MES-SA; 0.04115 µM,0.9942 ± 0.0068
same,relative viability,MES-SA; 0.1235 µM,0.997 ± 0.01
same,relative viability,MES-SA; 0.3704 µM,1.02 ± 0.012
same,relative viability,MES-SA; 1.111 µM,1.01 ± 0.03
same,relative viability,MES-SA; 3.333 µM,0.905 ± 0.036
same,relative viability,MES-SA; 10 µM,0.658 ± 0.033
same,relative viability,SK-ES-1; 0.00017 µM,0.937
same,relative viability,SK-ES-1; 0.00051 µM,0.98 ± 0.052
same,relative viability,SK-ES-1; 0.00152 µM,0.9529 ± 0.0031
same,relative viability,SK-ES-1; 0.00457 µM,0.9471 ± 0.0044
same,relative viability,SK-ES-1; 0.01372 µM,0.983 ± 0.015
same,relative viability,SK-ES-1; 0.04115 µM,0.9614 ± 0.0076
same,relative viability,SK-ES-1; 0.1235 µM,0.977 ± 0.04
same,relative viability,SK-ES-1; 0.3704 µM,0.97 ± 0.042
same,relative viability,SK-ES-1; 1.111 µM,0.957 ± 0.065
same,relative viability,SK-ES-1; 3.333 µM,0.841 ± 0.037
same,relative viability,SK-ES-1; 10 µM,0.62 ± 0.036
same,relative viability,SK-LMS-1; 0.00017 µM,1.02 ± 0.023
same,relative viability,SK-LMS-1; 0.00051 µM,1.02 ± 0.02
same,relative viability,SK-LMS-1; 0.00152 µM,1.04 ± 0.014
same,relative viability,SK-LMS-1; 0.00457 µM,1.02 ± 0.08
same,relative viability,SK-LMS-1; 0.01372 µM,1.06 ± 0.018
same,relative viability,SK-LMS-1; 0.04115 µM,1.07 ± 0.014
same,relative viability,SK-LMS-1; 0.1235 µM,1.05 ± 0.052
same,relative viability,SK-LMS-1; 0.3704 µM,1.08 ± 0.024
same,relative viability,SK-LMS-1; 1.111 µM,1.08 ± 0.021
same,relative viability,SK-LMS-1; 3.333 µM,1.11 ± 0.058
same,relative viability,SK-LMS-1; 10 µM,0.635 ± 0.039
same,relative viability,SW1353; 0.00017 µM,1.01 ± 0.033
same,relative viability,SW1353; 0.00051 µM,0.988 ± 0.01
same,relative viability,SW1353; 0.00152 µM,0.986 ± 0.027
same,relative viability,SW1353; 0.00457 µM,1.04 ± 0.06
same,relative viability,SW1353; 0.01372 µM,1.01 ± 0.016
same,relative viability,SW1353; 0.04115 µM,1.02 ± 0.038
same,relative viability,SW1353; 0.1235 µM,0.991 ± 0.033
same,relative viability,SW1353; 0.3704 µM,1 ± 0.027
same,relative viability,SW1353; 1.111 µM,1.06 ± 0.02
same,relative viability,SW1353; 3.333 µM,1.1 ± 0.053
same,relative viability,SW1353; 10 µM,0.762 ± 0.12
same,relative viability,SW684; 0.00017 µM,0.968 ± 0.072
same,relative viability,SW684; 0.00051 µM,0.9679 ± 0.0012
same,relative viability,SW684; 0.00152 µM,0.985 ± 0.051
same,relative viability,SW684; 0.00457 µM,1.02 ± 0.045
same,relative viability,SW684; 0.01372 µM,0.948 ± 0.053
same,relative viability,SW684; 0.04115 µM,0.9868 ± 0.0079
same,relative viability,SW684; 0.1235 µM,1.01 ± 0.042
same,relative viability,SW684; 0.3704 µM,1.02 ± 0.036
same,relative viability,SW684; 1.111 µM,1.03 ± 0.091
same,relative viability,SW684; 3.333 µM,0.973 ± 0.041
same,relative viability,SW684; 10 µM,0.59 ± 0.042
same,relative viability,SW872; 0.00017 µM,0.973 ± 0.031
same,relative viability,SW872; 0.00051 µM,0.963 ± 0.055
same,relative viability,SW872; 0.00152 µM,0.954 ± 0.055
same,relative viability,SW872; 0.00457 µM,0.971 ± 0.031
same,relative viability,SW872; 0.01372 µM,0.992 ± 0.021
same,relative viability,SW872; 0.04115 µM,0.968 ± 0.061
same,relative viability,SW872; 0.1235 µM,0.969 ± 0.038
same,relative viability,SW872; 0.3704 µM,0.976 ± 0.031
same,relative viability,SW872; 1.111 µM,0.982 ± 0.02
same,relative viability,SW872; 3.333 µM,0.916 ± 0.033
same,relative viability,SW872; 10 µM,0.627 ± 0.013
same,relative viability,SW982; 0.00017 µM,0.985 ± 0.036
same,relative viability,SW982; 0.00051 µM,0.972 ± 0.053
same,relative viability,SW982; 0.00152 µM,0.973 ± 0.029
same,relative viability,SW982; 0.00457 µM,0.975 ± 0.022
same,relative viability,SW982; 0.01372 µM,0.97 ± 0.034
same,relative viability,SW982; 0.04115 µM,0.98 ± 0.043
same,relative viability,SW982; 0.1235 µM,0.963 ± 0.037
same,relative viability,SW982; 0.3704 µM,0.979 ± 0.025
same,relative viability,SW982; 1.111 µM,0.983 ± 0.019
same,relative viability,SW982; 3.333 µM,0.96 ± 0.047
same,relative viability,SW982; 10 µM,0.531 ± 0.025
same,relative viability,SYO-1; 0.00017 µM,0.98 ± 0.022
same,relative viability,SYO-1; 0.00051 µM,0.974 ± 0.012
same,relative viability,SYO-1; 0.00152 µM,0.965 ± 0.013
same,relative viability,SYO-1; 0.00457 µM,0.964 ± 0.027
same,relative viability,SYO-1; 0.01372 µM,0.948 ± 0.035
same,relative viability,SYO-1; 0.04115 µM,0.907 ± 0.053
same,relative viability,SYO-1; 0.1235 µM,0.804 ± 0.011
same,relative viability,SYO-1; 0.3704 µM,0.744 ± 0.017
same,relative viability,SYO-1; 1.111 µM,0.704 ± 0.042
same,relative viability,SYO-1; 3.333 µM,0.63 ± 0.029
same,relative viability,SYO-1; 10 µM,0.155 ± 0.027
